This note sets out measurements from patent US4663323A, “Tetrazole derivatives, anti-ulcer composition containing the same and method for treating ulcers” (Otsuka Pharmaceutical Co., Ltd., priority 1984, dated 1987).

For data set [1], the system named is gastric juice secretion. Kind of data set: Shay rat pylorus ligation method (gastric juice secretion-inhibiting activity). Format: in vivo, male Wistar rats. The note with it: sc, 4 h, 100 mg/kg s.c., 30 min before pylorus ligation, measured 4 hours after ligation. The protocol: The pharmacological activities of the compouns (I) were tested by a Shay rat pylorus ligation method (cf. H. Shay et al: Gastroenterol., Vol. 5, page 43, 1945) which is the most popular method for testing of gastric juice secretion-inhibiting activity. The test was carried out by using male Wistar rats, weighing about 170 g and fasting for 24 hours.
Test compounds were administered 30 minutes before the pylorus ligation in a dose of 100 mg/kg in subcutaneous route, and the volume, total acidity and/or pepsin activity of the gastric juice were measured 4 hours after the ligation. As a control, a saline solution was administered instead of the test compound. The inhibitory ratio (%) of the test compounds were calculated when the inhibitory activities of the control were counted as zero (0).
(§1) In the table, the inhibitory ratio (%) was evaluated as follows: […]

Data set [2] is described as follows: Acute Toxicity. The note with it: rat, in vivo, po, male Wistar rats. Here is the method:
The test compounds were orally administered to male Wistar rats, and the half lethal dose (LD50) was measured.

In data set [3] the test system is Stress Ulcer. Kind of data set: Stress Ulcer. Format: in vivo, male Wistar rats. The note with it: oral, 1×10^-3 mole in 0.5% CMC, before restraint and water dipping at 23° C. for 7 hours. Here is the method: After male Wistar rats weighing about 170 g was fasted for 24 hours, the rats were restrained in a stress cage and dipped in water bath at 23° C. till chest of the animals. After 7 hours, the rats were killed and the stomach was isolated. Into the isolated stomach 10% formalin (8 ml) was poured and settled. The stomach was cut open at the greater curvature, and the length of each ulcer on the membrane was measured. Sum of the length of all ulcers was shown as ulcer index (UI). The test compound was orally administered to the rats before restraint in a stress cage in the form of 0.5% CMC suspension in a concentration of 1×10^-3 mole. As a control, only the solvent (CMC solution) was administered likewise.
The inhibitory ratio (%) of stress ulcer of the test compounds was calculated by the following equation: [formula]
as §1

The mark [4] stands for this setting: saline control = 0, read-out: Inhibitory ratio, Pepsin activity.
Where [5] appears, read: saline control = 0, read-out: Inhibitory ratio, Total acidity.
[6] abbreviates: saline control = 0, read-out: Inhibitory ratio, Volume of gastric juice.

Where two headings read alike, the source gives them in different places.

In the case of `CCN(C(=O)CCCSc1nnnn1-c1ccccc1)C1CCCCC1` [Compound 31, N-Ethyl-N-cyclohexyl-4-(1-phenyl-1,2,3,4-tetrazol-5-yl)thio-butyramide], the inhibition in vivo at 100 mg/kg in data set [1] (setting [4]) is 10 to 50%; in data set [1] (setting [5]), 10 to 50%; in data set [1] (setting [6]), above 50%.

On to `CCN(CC1CCCCC1)C(=O)CCCSc1nnnn1C` [Compound 30, N-Ethyl-N-cyclohexylmethyl-4-(1-methyl-1,2,3,4-tetrazol-5-yl)thio-butyramide], for which the values for the inhibition in vivo at 100 mg/kg in data set [1] (setting [4]), in data set [1] (setting [5]) and in data set [1] (setting [6]) were 10 to 50%, 10 to 50% and above 50%, respectively.

Turning to `CCN(C(=O)CCCSc1nnnn1C)C1CCCCC1O` (stereo not shown) [Compound 8, N-Ethyl-N-(2-hydroxycyclohexyl)-4-(1-methyl-1,2,3,4-tetrazol-5-yl)thio-butyramide], the inhibition in vivo at 100 mg/kg in data set [1] (setting [4]), in data set [1] (setting [5]) and in data set [1] (setting [6]) was 10 to 50% in each case. For the same molecule, the LD50 in data set [2] was above 500 mg/kg.

Consider `CCN(CC)C(=O)CCCSCc1nnnn1CC` [Compound 18, N,N-Diethyl-4-(1-ethyl-1,2,3,4-tetrazol-5-yl)methylthio-butyramide], for which the “Inhibitory ratio of stress ulcer” value in data set [3] is “+ (30 to less than 60%)”.

In the case of `CCN(C(=O)CCCCc1nnnn1C1CCCCC1)C1CCCCC1` [Compound 23, N-Ethyl-N-cyclohexyl-5-(1-cyclohexyl-1,2,3,4-tetrazol-5-yl)valeramide], the inhibition in vivo at 100 mg/kg was below 10% in data set [1] (setting [4]), 10 to 50% in data set [1] (setting [5]) and 10 to 50% in data set [1] (setting [6]). In addition, in data set [3], the “Inhibitory ratio of stress ulcer” value is given as “+ (30 to less than 60%)”.

`Cn1nnnc1SCCCC(=O)N1CCCCC1` [Compound 25, 1-Methyl-5-(3-piperidylcarbonylpropyl)thio-1,2,3,4-tetrazole]: the inhibition in vivo at 100 mg/kg in data set [1] (setting [4]), in data set [1] (setting [5]) and in data set [1] (setting [6]) was 10 to 50% throughout.

Turning to `CCc1ccc(-n2nnnc2CSCCC(=O)O)cc1` [Compound 53, 3-[1-(4-Ethylphenyl)-1,2,3,4-tetrazol-5-yl]-methylthio-propionic acid], the inhibition in vivo at 100 mg/kg in data set [1] (setting [6]) was 10 to 50%.

Regarding `Cn1nnnc1SCCCC(=O)Nc1ccccn1` [Compound 27, N-(2-Pyridyl)-4-(1-methyl-1,2,3,4-tetrazol-5-yl)thio-butyramide], the inhibition in vivo at 100 mg/kg in data set [1] (setting [4]), in data set [1] (setting [5]) and in data set [1] (setting [6]) was 10 to 50% each time.

`CC(C)N(C(=O)CCCCc1nnnn1-c1ccccc1)C1CCCCC1` [Compound 50, N-Isopropyl-N-cyclohexyl-5-(1-phenyl-1,2,3,4-tetrazol-5-yl)valeramide]: in data set [3], the “Inhibitory ratio of stress ulcer” value is given as “++ (more than 60%)”.

Take `CCCCn1nnnc1CSCCC(=O)NCC` [Compound 15, N-Ethyl-3-(1-butyl-1,2,3,4-tetrazol-5-yl)-methylthio-propionamide]: in data set [3], the “Inhibitory ratio of stress ulcer” value is given as “++ (more than 60%)”.

`CCN(CC)C(=O)CCCCc1nnnn1-c1ccccc1` [Compound 35, N,N-Diethyl-5-(1-phenyl-1,2,3,4-tetrazol-5-yl)valeramide]: the inhibition in vivo at 100 mg/kg in data set [1] (setting [4]), in data set [1] (setting [5]) and in data set [1] (setting [6]) was 10 to 50% each time. Further, the “Inhibitory ratio of stress ulcer” value in data set [3] is “+ (30 to less than 60%)”.

On to `CC(=O)N1CCN(C(=O)CCCSc2nnnn2C)CC1` [Compound 32, 1-Methyl-5-[3-(4-acetyl-1-piperazinylcarbonyl)propyl]thio-1,2,3,4-tetrazol], for which the inhibition in vivo at 100 mg/kg in data set [1] (setting [4]), in data set [1] (setting [5]) and in data set [1] (setting [6]) was 10 to 50% each time.

Consider `CCN(CC)C(=O)CCCCc1nnnn1C` [Compound 34, N,N-Diethyl-5-(1-methyl-1,2,3,4-tetrazol-5-yl)valeramide], for which the inhibition in vivo at 100 mg/kg in data set [1] (setting [4]), in data set [1] (setting [5]) and in data set [1] (setting [6]) was 10 to 50% each time. The “Inhibitory ratio of stress ulcer” value in data set [3] was “+ (30 to less than 60%)”.

With `CCCCCCNC(=O)CCCCc1nnnn1-c1ccccc1` [Compound 48, N-(n-Hexyl)-5-(1-phenyl-1,2,3,4-tetrazol-5-yl)valeramide], the “Inhibitory ratio of stress ulcer” value in data set [3] is “+ (30 to less than 60%)”.

Regarding `Cn1nnnc1SCCCC(=O)N(CCO)c1ccccc1` [Compound 40, N-(2-Hydroxyethyl)-N-phenyl-4-(1-methyl-1,2,3,4-tetrazol-5-yl)thio-butyramide], the inhibition in vivo at 100 mg/kg in data set [1] (setting [6]) was in the range of 10 to 50%.

In the case of `CCN(C(=O)CCCSc1nnnn1C)C1CCCC1` [Compound 29, N-Ethyl-N-cyclopentyl-4-(1-methyl-1,2,3,4-tetrazol-5-yl)thio-butyramide], the inhibition in vivo at 100 mg/kg in data set [1] (setting [4]) was 10 to 50%; in data set [1] (setting [5]) it was above 50%; in data set [1] (setting [6]) it was above 50%.

As to `Cn1nnnc1SCCCC(=O)N1CCOCC1` [Compound 33, 1-Methyl-5-(3-morpholinocarbonylpropyl)thio-1,2,3,4-tetrazole], the inhibition in vivo at 100 mg/kg in data set [1] (setting [4]), in data set [1] (setting [5]) and in data set [1] (setting [6]) was 10 to 50% each time.

As for `Cn1nnnc1SCCCC(=O)Nc1ccc([N+](=O)[O-])cc1` [Compound 43, N-(4-Nitrophenyl)-4-(1-methyl-1,2,3,4-tetrazol-5-yl)thio-butyramide], the inhibition in vivo at 100 mg/kg in data set [1] (setting [6]) was in the range of 10 to 50%.

Take `CCN(C(=O)CCCCc1nnnn1C)C1CCCCC1` [Compound 51, N-Ethyl-N-cyclohexyl-5-(1-methyl-1,2,3,4-tetrazol-5-yl)valeramide]: the inhibition in vivo at 100 mg/kg in data set [1] (setting [6]) lay within 10 to 50%. In data set [3], the “Inhibitory ratio of stress ulcer” value was “+ (30 to less than 60%)”.

Consider `CCN(C(=O)CCCSc1nnnn1C)C1CCCCCC1` [Compound 20, N-Ethyl-N-cycloheptyl-4-(1-methyl-1,2,3,4-tetrazol-5-yl)thio-butyramide], for which the inhibition in vivo at 100 mg/kg was below 10% in data set [1] (setting [4]), 10 to 50% in data set [1] (setting [5]) and above 50% in data set [1] (setting [6]).

Take `Cc1c(Cl)cccc1NC(=O)CCCSc1nnnn1C` [Compound 42, N-(2-Methyl-3-chlorophenyl)-4-(1-methyl-1,2,3,4-tetrazol-5-yl)thio-butyramide]: the inhibition in vivo at 100 mg/kg in data set [1] (setting [6]) was in the range of 10 to 50%.

On to `CCN(CC)C(=O)CCSCc1nnnn1CC` [Compound 14, N,N-Diethyl-3-(1-ethyl-1,2,3,4-tetrazol-5-yl)methylthio-propionamide], for which the inhibition in vivo at 100 mg/kg in data set [1] (setting [6]) lay in the range of 10 to 50%. For the same molecule, the “Inhibitory ratio of stress ulcer” value in data set [3] is on record as “++ (more than 60%)”.

Turning to `COC(=O)CCCCc1nnnn1C1CCCCC1` [Compound 54, Methyl 5-(1-cyclohexyl-1,2,3,4-tetrazol-5-yl)valerate], the inhibition in vivo at 100 mg/kg in data set [1] (setting [6]) was 10 to 50%.

Consider `CCN(C(=O)CCSCc1nnnn1CC)C1CCCCC1` [Compound 36, N-Ethyl-N-cyclohexyl-3-(1-ethyl-1,2,3,4-tetrazol-5-yl)methylthio-propionamide], for which, in data set [1] (setting [6]), the inhibition in vivo at 100 mg/kg was above 50%.

As to `Cn1nnnc1SCCCC(=O)N(Cc1ccccc1)Cc1ccccc1` [Compound 22, N,N-Dibenzyl-4-(1-methyl-1,2,3,4-tetrazol-5-yl)thio-butyramide], the inhibition in vivo at 100 mg/kg in data set [1] (setting [4]) was below 10%; in data set [1] (setting [5]), 10 to 50%; in data set [1] (setting [6]), 10 to 50%.

`Cn1nnnc1SCCCC(=O)O` [Compound 38, 4-(1-methyl-1,2,3,4-tetrazol-5-yl)thiobutyric acid]: in data set [1] (setting [6]), the inhibition in vivo at 100 mg/kg is 10 to 50%.

Turning to `CC(C)N(C(=O)CCCSc1nnnn1C)C(C)C` [Compound 21, N,N-Diisopropyl-4-(1-methyl-1,2,3,4-tetrazol-5-yl)thio-butyramide], the results for the inhibition in vivo at 100 mg/kg in data set [1] (setting [4]), in data set [1] (setting [5]) and in data set [1] (setting [6]) were below 10%, 10 to 50% and above 50%, respectively.

Consider `CCN(CC)C(=O)CCCCc1nnn[nH]1` [Compound 52, N,N-Diethyl-5-(1,2,3,4-tetrazol-5-yl)-valeramide], for which the inhibition in vivo at 100 mg/kg in data set [1] (setting [6]) was in the range of 10 to 50%. Also, in data set [3], the “Inhibitory ratio of stress ulcer” value is listed as “+ (30 to less than 60%)”.

On to `Cn1nnnc1SCCCC(=O)Nc1ccc(S(N)(=O)=O)cc1` [Compound 41, N-(4-Sulfamoylphenyl)-4-(1-methyl-1,2,3,4-tetrazol-5-yl)thio-butyramide], for which the inhibition in vivo at 100 mg/kg in data set [1] (setting [6]) is 10 to 50%.

In the case of `CC(C)N(C(=O)CCCSc1nnnn1C)C1CCCCC1` [Compound 24, N-Isopropyl-N-cyclohexyl-4-(1-methyl-1,2,3,4-tetrazol-5-yl)thio-butyramide], the inhibition in vivo at 100 mg/kg was below 10% in data set [1] (setting [4]), 10 to 50% in data set [1] (setting [5]) and above 50% in data set [1] (setting [6]).

Usually LD50 stands for the dose expected to kill half of the subjects tested. The low end stands for a more toxic substance, the high end for a less toxic substance.
